Measured values: patent US20100233086A1, “COMPOUNDS FOR USE IN IMAGING, DIAGNOSING AND/OR TREATMENT OF DISEASES OF THE CENTRAL NERVOUS SYSTEM OR OF TUMORS” (priority 2007, published 2010)
Entries after “also recorded” stand apart in the source; their conditions may differ.

Key:
[1] = PET brain uptake (time activity curves, SUV) in cynomolgus monkey; details: same monkey
[2] = Biodistribution in NMRI mice (gamma counter); type: in vivo; details: 0.178 MBq injected, decay corrected
Description: For each time point 3 mice have been used. The mice were injected each with 0.178 MBq[^18F]compound 13. After the respective time points the mice were sacrificed, the organs taken out and measured in a gamma counter. The results were decay corrected.

MAO B = target: T1, MAO B (Homo sapiens, UniProt P27338); assay: Autoradiography of [^18F]compound 13 on human brain sections (Alzheimer's disease), blocking with MAO B inhibitors; type: binding
T1 construct: investigated on human brain sections from patients with Alzheimer's disease and normal controls; from tissue; host or cells: human brain sections (Alzheimer's disease patients and normal controls)
T1 sequence (P27338 1-520): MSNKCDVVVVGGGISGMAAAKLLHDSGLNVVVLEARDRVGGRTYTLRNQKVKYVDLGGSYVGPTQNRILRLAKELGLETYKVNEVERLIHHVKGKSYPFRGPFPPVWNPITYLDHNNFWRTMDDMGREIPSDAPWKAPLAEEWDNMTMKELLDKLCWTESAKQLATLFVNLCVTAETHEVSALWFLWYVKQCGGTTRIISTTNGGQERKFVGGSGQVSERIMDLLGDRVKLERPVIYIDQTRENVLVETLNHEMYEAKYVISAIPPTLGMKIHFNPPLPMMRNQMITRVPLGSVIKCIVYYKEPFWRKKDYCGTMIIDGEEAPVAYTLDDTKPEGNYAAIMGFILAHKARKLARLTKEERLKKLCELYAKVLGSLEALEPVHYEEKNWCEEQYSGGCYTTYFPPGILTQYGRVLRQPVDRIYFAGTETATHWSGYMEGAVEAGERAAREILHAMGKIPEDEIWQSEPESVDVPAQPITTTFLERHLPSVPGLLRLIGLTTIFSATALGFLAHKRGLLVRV
Description: Thereafter, the slides were removed and brought to room temperature. […] The sections were dipped two times into ice cold distilled water, dried at room temperature and exposed to PhosphorImanger plates (FUJI BAS 5000) over night. For detection of the specificity of the signals an excess (10 μM) of Deprenyl, Pargylin (both for MAO B) and Clorgyline (for MAO A), respectively, was used. After exposure, the sections were immunohistochemically stained using a standard protocol with an anti-GFAP antibody to detect reactive astrocytes. Amyloid B plaques were detected with BAY 949172 (Rowe CC et al. Lancet Neutol 2008; 7: 129-135) using the binding protocol as described above.

[3] = Plasma radioactivity and plasma metabolites in cynomolgus monkey; type: in vivo
Description: Plasma radioactivity profiles have been monitored over time. […] In addition, metabolites occurring in plasma over time have been monitored (FIGS. 8 and 9) for both ligands.

[4] = reported in the literature; cited from earlier work

Row | SMILES | uptake and enrichment in specific regions, e.g. striatum, higher than [^11C]Deprenyl [1] | brain uptake of radioactivity ([2]; 2 min p.i.) | radioactivity in brain ([2]; 30 min p.i.) | radioactivity in brain ([2]; after 4 hours) | relation of autoradiographic signal density and intensity to amyloid β pathology (MAO B; Alzheimer's disease brain slices, amyloid detected with BAY 949172) | autoradiographic signal blocked with deprenyl (MAO B; human Alzheimer's disease brain slices, 10 Bq/μl tracer, excess (10 μM) of Deprenyl) | autoradiographic signal blocked with pargylin (MAO B; human Alzheimer's disease brain slices, 10 Bq/μl tracer, excess (10 μM) of Pargylin) | relation of autoradiographic signal to reactive astrocytes (GFAP immunoreactivity) (MAO B; human brain slice from a patient with AD, anti-GFAP staining) | metabolic stability compared to [^11C]Deprenyl (and compound 5) ([3]; plasma metabolites) | generation of metabolite b in plasma (level) ([3]; plasma over time) | degradation to metabolite [4]
1 | C#CCN(C)[C@H](C[18F])Cc1ccccc1 [[^18F]compound 13, N-[(2S)-1-(^18F)fluoro-3-phenylpropan-2-yl]-N-methylprop-2-yn-1-amine] | about 10% | 7.5 ± 0.04 % ID/g | 2.10±0.33 % ID/g | 1.34±0.26 % ID/g | corresponds with the amyloid β plaque load | could be blocked; also recorded: completely blocked | could be blocked | correspondence of the autoradiographic signal to reactive astrocytes is demonstrated | improved metabolic stability; also recorded: more stable | around 10% | 
2 | C#CCN(C)CCCCCC[18F] [compound 5] |  |  |  |  |  |  |  |  |  |  | degraded quickly towards a polar [^18F]-labelled metabolite
